Assay results from PMC3517478 (BMC Neurology, 2012).
Numbering of substitutions follows the chain as printed.

Columns and labels:
WT glycine receptor = conditions: on cell mode, 4 s drug application; cited from earlier work
[1] = molecular target: T1, human α1S267I-GlyR expressed in HEK 293 cells (Homo sapiens, UniProt P23415, S295I); assay: Whole-cell patch-clamp, direct activation in the absence of glycine; type: cell-based; design: expressed in transfected cells; host or cells: HEK 293 (transient, electroporation; pcDNA1amp vector); conditions: S267I, 0.01-1000 μM
T1 sequence (P23415 29-457 S295I): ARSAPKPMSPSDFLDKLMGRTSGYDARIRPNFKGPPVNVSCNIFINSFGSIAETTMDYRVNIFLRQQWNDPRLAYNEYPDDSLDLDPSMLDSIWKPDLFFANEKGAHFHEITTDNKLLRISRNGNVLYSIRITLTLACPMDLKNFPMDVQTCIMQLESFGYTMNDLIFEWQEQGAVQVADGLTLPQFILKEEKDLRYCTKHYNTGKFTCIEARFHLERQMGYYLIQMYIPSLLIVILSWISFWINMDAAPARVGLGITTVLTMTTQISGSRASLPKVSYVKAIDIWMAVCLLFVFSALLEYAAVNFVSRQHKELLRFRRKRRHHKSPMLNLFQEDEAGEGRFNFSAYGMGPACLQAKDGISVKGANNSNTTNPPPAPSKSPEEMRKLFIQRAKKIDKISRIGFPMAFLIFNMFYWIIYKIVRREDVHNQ
Method: (§1) Drug-containing vials were vigorously vortexed for 30min.
(§2) A new cell was used for each protocol and at least four different experiments were performed for each condition. The concentration of the diluent EtOH corresponding to the highest drug concentration used was 17150 μM.
(§3) Currents were filtered at 2 kHz.

[2] = molecular target: T2, human α1R271K-GlyR expressed in HEK 293 cells (Homo sapiens, UniProt P23415, R299K); assay: as above; type: cell-based; design: expressed in transfected cells; host or cells: HEK 293 (transient, electroporation; pcDNA1amp vector); conditions: R271K
T2 sequence (P23415 29-457 R299K): T1 sequence (P23415 29-457 S295I) with I267S, R271K
Method: as §1, §2, §3

[3] = molecular target: T3, human α1R271L-GlyR expressed in HEK 293 cells (Homo sapiens, UniProt P23415, R299L); assay: as above; type: cell-based; design: expressed in transfected cells; host or cells: HEK 293 (transient, electroporation; pcDNA1amp vector); conditions: R271L, 0.01-1000 μM
T3 sequence (P23415 29-457 R299L): T1 sequence (P23415 29-457 S295I) with I267S, R271L
Method: as §1, §2, §3

[4] = molecular target: T4, human α1R271Q-GlyR expressed in HEK 293 cells (Homo sapiens, UniProt P23415, R299Q); assay: as above; type: cell-based; design: expressed in transfected cells; host or cells: HEK 293 (transient, electroporation; pcDNA1amp vector); conditions: R271Q, 0.01-1000 μM
T4 sequence (P23415 29-457 R299Q): T1 sequence (P23415 29-457 S295I) with I267S, R271Q
Method: as §1, §2, §3

Compound | rise time (WT glycine receptor) [ms] | direct activation [1] | direct activation nH [2] | mean maximal activation (direct) [2] [%] | EC50 ([2]; 0.01-1000 μM, n = 5) [µM] | direct activation [3] | direct activation [4]
NCC(=O)O [glycine] | 0.4 |  |  |  |  |  | 
4-chloro-2,6-dimethylphenol [4-chloropropofol] |  | completely insensitive | 0.41 ± 0.15 | 77.2 ± 4.2 | 16.4 ± 22.3 | completely insensitive | only a marginal direct activation
